Entries after “also recorded” stand apart in the source; their conditions may differ. Like-named read-outs stand apart in the source and are kept apart here.
Legend:
BACE2 = target: T1, BACE2 (Homo sapiens, UniProt Q9Y5Z0); experiment: BACE2 purified enzyme fluorescence polarization assay; format: biochemical
T1 construct: purchased R&D Systems 4097-AS
T1 sequence (Q9Y5Z0 63-518): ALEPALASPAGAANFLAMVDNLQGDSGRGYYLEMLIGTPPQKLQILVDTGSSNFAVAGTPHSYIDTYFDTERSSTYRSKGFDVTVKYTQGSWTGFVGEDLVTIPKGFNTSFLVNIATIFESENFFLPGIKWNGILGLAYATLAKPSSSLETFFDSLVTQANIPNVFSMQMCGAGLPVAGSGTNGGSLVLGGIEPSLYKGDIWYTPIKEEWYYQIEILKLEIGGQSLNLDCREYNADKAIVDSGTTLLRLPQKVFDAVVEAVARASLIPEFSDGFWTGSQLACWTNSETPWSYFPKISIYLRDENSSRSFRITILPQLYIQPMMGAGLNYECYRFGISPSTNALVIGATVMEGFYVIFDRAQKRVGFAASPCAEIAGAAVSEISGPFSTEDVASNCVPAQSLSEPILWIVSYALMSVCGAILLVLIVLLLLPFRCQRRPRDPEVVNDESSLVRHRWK
Method: (§1) Purified enzyme inhibition of BACE1, BACE2, CatD and CatE was determined using fluorescence polarization (FP) assays. Briefly, purified enzymes were treated with test compounds (1% DMSO, 37 °C) in the presence of synthetic peptide substrates (150 nM) in 30 μl total volume of NaOAc buffer (100 mM, pH 4.5, 0.0001% Tween-20) in a 384-well plate. After incubation, reactions were stopped and substrate captured by the addition of 1.5 μM streptavidin, and FP measured with an EnVision plate reader (PerkinElmer, excitation 485 nm, emission 530 nm). […] BACE2 activity was assessed with 0.5 nM recombinant BACE2 (R&D Systems 4097-AS) and the same synthetic substrate used for BACE1, with a 1 h incubation time. […] CatE activity was assessed with 1.0 nM recombinant CatE (Creative BioMart CTSE-255H) and the same synthetic substrate used for CatD, with a 1.5 h incubation time.

[1] = target: T2, ~30 kDa band (CatD heavy chain) in ARPE-19 cells (Homo sapiens, UniProt P07339); experiment: Live cell PF-7802 labelling, in-gel fluorescence analysis; format: cell-based; conditions: pretreatment 2 µM inhibitor, PF-7802 100 nM
T2 construct: host or cells: ARPE-19
Method: Cells were lysed with sonication on ice in 70 μl DPBS and protein concentrations were determined using a BCA assay (Pierce). […] Gels were fixed in 50% MeOH/7% AcOH for 15 min, then rinsed with 40% MeOH for at least 20 min before in-gel fluorescence scanning (Typhoon Trio, excitation 532 nm, emission 580 nm).

[2] = tested on: CatD protein level in ARPE-19 cells; experiment: Chronic ARPE-19 inhibitor treatment and CatD ELISA; format: cell-based, human; conditions: 300 pM-10 μM, 7 days
Method: ARPE-19 cells were plated in 96-well plates at a density of 2 × 10^4 cells per well. After 12–24 h, media was removed and replaced with media containing test compounds at the indicated concentration. After 7 days of compound incubation (no media changes or additional test compound treatments), conditioned media was collected for a cytotoxicity assay, and attached cells were washed once with DPBS and then lysed on ice with gentle pipetting followed by a 20 min extraction in 50 μl in ice-cold RIPA buffer (50 mM Tris, pH 7.4, 150 mM NaCl, 1 mM EDTA, 1% NP40, 1% Na deoxycholate, 0.1% SDS) supplemented with 1 mM PMSF (Sigma) and EDTA-free protease inhibitor cocktail tablets (Roche). Cytotoxicity was determined from conditioned media using an LDH assay (Pierce 88954) as per the manufacturer's protocol. CatD protein levels were measured by ELISA (EMD Millipore Q1A29) as per the manufacturer's protocol. For both the LDH assay and the ELISA, absorbance was read on an EnVision plate reader (PerkinElmer). Data were normalized to DMSO and plotted in GraphPad Prism.

BACE1 [3] = target: T3, BACE1 (Homo sapiens, UniProt P56817); experiment: BACE1 purified enzyme fluorescence polarization assay; format: biochemical; parameters: His (C); made in house; host or cells: CHO-K1
Method: as §1
Target sequence in this assay (P56817 46-457): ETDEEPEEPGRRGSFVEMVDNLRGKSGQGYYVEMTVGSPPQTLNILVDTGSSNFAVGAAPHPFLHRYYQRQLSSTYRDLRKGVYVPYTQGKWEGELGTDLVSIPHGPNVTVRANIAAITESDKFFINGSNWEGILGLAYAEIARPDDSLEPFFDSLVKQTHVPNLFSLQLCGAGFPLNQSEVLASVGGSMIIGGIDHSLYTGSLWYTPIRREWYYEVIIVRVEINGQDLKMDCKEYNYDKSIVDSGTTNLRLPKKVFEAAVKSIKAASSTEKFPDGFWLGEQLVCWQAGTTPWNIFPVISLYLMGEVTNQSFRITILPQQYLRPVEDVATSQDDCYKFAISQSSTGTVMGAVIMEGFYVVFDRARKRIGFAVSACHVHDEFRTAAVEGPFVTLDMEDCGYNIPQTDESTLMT

CatD [4] = target: T4, CatD (Homo sapiens, UniProt P07339); experiment: CatD purified enzyme fluorescence polarization assay; format: biochemical; parameters: final maturation into a non-covalently associated heavy chain and light chain; purchased Sigma C8696; host or cells: human liver
Method: as §1
Target sequence in this assay (P07339 65-162 limits assumed): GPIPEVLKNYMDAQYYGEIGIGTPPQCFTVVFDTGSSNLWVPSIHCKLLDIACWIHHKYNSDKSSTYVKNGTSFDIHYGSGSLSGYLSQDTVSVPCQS
Target sequence in this assay (P07339 169-412 limits assumed): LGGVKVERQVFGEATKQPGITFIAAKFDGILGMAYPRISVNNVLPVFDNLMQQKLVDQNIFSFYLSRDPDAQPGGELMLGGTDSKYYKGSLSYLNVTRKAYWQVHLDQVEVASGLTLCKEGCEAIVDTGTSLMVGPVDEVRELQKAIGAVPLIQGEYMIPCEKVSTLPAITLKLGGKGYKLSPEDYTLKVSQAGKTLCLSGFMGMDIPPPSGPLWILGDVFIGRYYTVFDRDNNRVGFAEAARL

[5] = pKa determination by multiplexed capillary electrophoresis; format: physicochemical; conditions: aqueous buffers
Method: All pKa values were determined at Analiza, Inc. by multiplexed capillary electrophoresis (mCE) using 96-capillary array electrophoresis instrument to measure the effective mobility (migration time of the compound in relation to neutral marker, DMSO) with ultraviolet detection. The pKa values were obtained from the ionization curves by plotting the compound effective mobility (24 points across pH range 1.7–11.2) versus pH. All pKa results were determined using aqueous buffers with method average absolute error 0.12.

[6] = tested on: retinal pigment epithelium (RPE); experiment: Exploratory toxicology, ocular toxicity by retinal histology in rats; format: in vivo; conditions: rat
Method: (§2) Wistar Han rats (obtained from Charles River, 125–300 g, 6–9 weeks old at study start, see Supplementary Table 7 for number of males and females) received daily oral dosing of test compounds or vehicle at the indicated concentrations for 7–29 days as indicated. The doses were prepared in a solution of 0.5% methylcellulose and 0.2% polysorbate 80, or 0.5% methylcellulose and hydroxypropyl methylcellulose acetate succinate (high fine grade) and delivered in a volume of 10 ml kg^−1 per day. Blood samples for bioanalytical analysis were collected in K2EDTA tubes via jugular vessel. Plasma was isolated after centrifugation and stored at −20 °C prior to analysis. Animals were given an additional dose the day after the end of the study (days 8, 15 or 30 for 7, 14 and 29 day studies, respectively) then killed by gas anaesthesia (isoflurane) followed by exsanguination ∼3 h after this final dose.

[7] = Plasma exposure (average unbound plasma concentration) in rats; format: in vivo, rat; conditions: rat; for concentration at 7 days: Wistar Han, oral; for concentration at 7 days / concentration at 29 days: average unbound plasma concentration, read-out: Avg Cp,u parent; for concentration at 29 days / Avg Cp,u metabolite: 14 days; for Avg Cp,u metabolite: metabolite of the dosed compound
Method: as §2
Plasma samples were analysed after protein precipitation by treating 20 μl of sample matrix with 200 μl of acetonitrile containing internal standard. All samples were centrifuged at 3,000 r.p.m. for 5 min. Then 100 μl of supernatant was transferred to a clean plate and evaporated to dryness under N2. Samples were reconstituted in 200 μl of 80:20 (v:v) acetonitrile:water. Samples were analysed on Waters Acquity UPLC connected to AB Sciex API5500 QTrap MS/MS.
Plasma protein binding was determined in the Rapid Equilibrium Device (RED, Thermo Scientific). Frozen plasma was warmed to 37 °C and adjusted to pH 7.4. The plasma was spiked with compound to a final concentration of 2 μM. Aliquots of spiked plasma were added to the donor (red) side, followed by addition of buffer to the receiver (white) side. The RED device was covered with a gas-permeable membrane and agitated within a humidified CO2 incubator (5% CO2, 75% relative humidity). Plasma (15 μl) and buffer (45 μl) were sampled from each insert and were matrix-matched with appropriate blank matrix (plasma with 45 μl buffer and buffer with 15 μl of plasma). Samples were protein-precipitated with acetonitrile containing internal standard, and the resulting supernatant was analysed by LC-MS/MS.

[8] = tested on: retinal pigment epithelium (RPE); parameters: method as in PMID 22090477, PMID 25361751; conditions: cited from earlier work
CatD [9] = target: T4, CatD; experiment: CatD cellular assay (competition of PF-7802 photolabelling in live ARPE-19 cells); format: cell-based; parameters: host or cells: ARPE-19; conditions: for CatD potency increase in live cells: CatD enzyme IC50 versus CatD cellular IC50
Method: ARPE-19 cells were plated at a density of 1.2 × 10^6 cells per well in six-well dishes 12–24 h before probe labelling. Culture media was removed completely and replaced with 1 ml of the appropriate serum-free media (no supplements) per well. Cells were then pretreated with test compounds at the indicated concentrations for 30 min (0.5% DMSO, 37 °C, 5% CO2). […] Ultraviolet irradiation was performed without culture plate lids for efficient irradiation, and samples were slowly rotated to prevent evaporation. After ultraviolet irradiation, cells were washed twice with Dulbecco's phosphate-buffered saline (DPBS), scraped into DPBS, centrifuged and stored as pellets at −80 °C.
Cells were lysed with sonication on ice in 70 μl DPBS and protein concentrations were determined using a BCA assay (Pierce). Total protein concentrations were then normalized to 1 mg ml^−1 in 50 μl total volume before addition of 5.5 μl click chemistry mix (1 : 3 : 1 : 0.5 volume of 50 mM CuSO4 (Sigma) in H2O : 1.7 mM TBTA (Sigma) in 4:1 t-BuOH:DMSO : 50 mM TCEP (Hampton Research) in dPBS : 10 mM TAMRA-azide (Lumiprobe) in DMSO - mixed immediately before use. Reagent solutions can be premade and stored at 4 °C except for TCEP, which should be made immediately before use). […] All fluorescence gels are presented in greyscale.
Target sequence in this assay (P07339 169-412 limits assumed): as above
Target sequence in this assay (P07339 65-162 limits assumed): as the sequence (P07339 65-162 limits assumed) above

BACE1 [10] = target: T3, BACE1; experiment: BACE1 biochemical cellular assay (sAPPβ ELISA in H4 cells overexpressing APP695); format: cell-based; parameters: endogenous in cells; host or cells: H4 human neuroglioma cells overexpressing human APP695; conditions: for BACE1 potency increase in live cells: BACE1 enzyme IC50 versus BACE1 cellular IC50
Method: Cellular inhibition of BACE1 was determined by measuring sAPPβ, the primary cleavage product of BACE-1, in H4 human neuroglioma cells overexpressing the wild-type human APP695. […] The colorimetric reaction was read by an EnVision plate reader (PerkinElmer).
Target sequence in this assay (P56817 46-501): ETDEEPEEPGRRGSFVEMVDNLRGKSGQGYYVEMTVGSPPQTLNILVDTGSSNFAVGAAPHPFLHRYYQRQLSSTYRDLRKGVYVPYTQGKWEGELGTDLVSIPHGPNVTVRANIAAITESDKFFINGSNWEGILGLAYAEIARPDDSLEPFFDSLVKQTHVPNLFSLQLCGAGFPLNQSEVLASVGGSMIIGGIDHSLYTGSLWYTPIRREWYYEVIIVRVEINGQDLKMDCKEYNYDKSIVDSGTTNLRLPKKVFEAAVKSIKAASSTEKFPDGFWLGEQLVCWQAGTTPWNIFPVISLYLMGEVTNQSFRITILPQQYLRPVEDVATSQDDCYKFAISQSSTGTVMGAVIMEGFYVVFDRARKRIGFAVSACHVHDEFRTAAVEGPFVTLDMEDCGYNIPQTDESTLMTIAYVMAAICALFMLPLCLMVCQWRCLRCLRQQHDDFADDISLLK

[11] = In vivo metabolism of BACE1 inhibitors in rats; parameters: species or system rat
[12] = 14 days, 110 mg kg-1 once daily

T2 sequence (P07339 169-412 limits assumed): as the sequence (P07339 169-412 limits assumed) above
T2 sequence (P07339 65-162 limits assumed): as the sequence (P07339 65-162 limits assumed) above

SMILES: CNC1CCN(C(=O)C[C@@H](Cc2ccccc2)C(=O)N[C@@H](CSC)C(=O)N[C@@H](CC2CCCCC2)[C@@H](O)C(=O)OC(C)C)CC1 [CP-108671, reference compound]
- BACE2 activity (BACE2): no activity
- Competition of PF-7802 labelling of the 30 kDa band [1]: blocked labelling of the 30 kDa band
- CatD protein accumulation (ELISA) [2]: could be reproduced
- BACE1 activity (BACE1 [3]): no BACE1 activity
- Inhibition of purified CatD (CatD [4]; purified CatD biochemical substrate assay): potent; also recorded: nanomolar potency

SMILES: C[C@@]1(c2cc(-c3cncnc3)c(F)cc2F)CCSC(N)=N1 [LY2811376, reference compound]
- pKa ([5]; read-out: pKa): 8.9
- Competition of PF-7802 labelling of the 30 kDa band [1]: blocked labelling of the 30 kDa band
- Male ocular toxicity incidence (positive or negative animals / total evaluated) ([6]; 7 days, 25 mg kg-1 once daily): 1/4
- Male ocular toxicity outcome ([6]; 7 days, 25 mg kg-1 once daily): Pos
- Male ocular toxicity incidence (positive or negative animals / total evaluated) ([6]; 7 days, 75 mg kg-1 once daily): 4/4
- Male ocular toxicity outcome ([6]; 7 days, 75 mg kg-1 once daily): Pos
- concentration at 7 days ([7]; 25 mg kg-1 once daily): 741 nM
- concentration at 7 days ([7]; 75 mg kg-1 once daily): 4370 nM
- Ocular toxicity in preclinical animal models [8]: ocular toxicity in preclinical animal models
- CatD potency difference between cell-free enzyme and cellular assays (CatD [9]): 95 fold
- CatD potency increase in live cells (CatD [9]): 95 x
- BACE1 potency increase in live cells (BACE1 [10]): 18 x

SMILES: Cc1coc([C@H]2C[C@H]3[C@@H](CF)SC(N)=N[C@@]3(c3ccc(F)cc3F)CO2)n1 [PF-1283]
- IC50 (BACE2; purified human enzyme, fluorescence polarization): 95 nM
- pKa [5]: 7.0
- Female ocular toxicity incidence (positive or negative animals / total evaluated) ([6]; 14 days, 45 mg kg-1 once daily): 3/3
- Female ocular toxicity outcome ([6]; 14 days, 45 mg kg-1 once daily): Neg (negative (neg) if there was no ocular abnormality observed)
- Male ocular toxicity incidence (positive or negative animals / total evaluated) ([6]; 14 days, 45 mg kg-1 once daily): 3/3
- Male ocular toxicity outcome ([6]; 14 days, 45 mg kg-1 once daily): Neg (negative (neg) if there was no ocular abnormality observed)
- Female ocular toxicity incidence (positive or negative animals / total evaluated) [6, 12]: 1/3
- Female ocular toxicity outcome [6, 12]: Pos
- Male ocular toxicity incidence (positive or negative animals / total evaluated) [6, 12]: 3/3
- Male ocular toxicity outcome [6, 12]: Neg (negative (neg) if there was no ocular abnormality observed)
- concentration at 29 days ([7]; 45 mg kg-1 once daily): 109 nM
- Avg Cp,u metabolite ([7]; 45 mg kg-1 once daily): 352 nM
- concentration at 29 days ([7]; 110 mg kg-1 once daily): 793 nM
- Avg Cp,u metabolite ([7]; 110 mg kg-1 once daily): 859 nM
- Stability to oxidative metabolism [11]: significantly more stable to oxidative metabolism; also recorded: significantly less susceptible to oxidative metabolism
- CatD potency increase in live cells (CatD [9]): 54 x
- IC50 (CatD [9]; live ARPE-19 cells, PF-7802 photoprobe 100 nM, 30 min): 240 nM
- IC50 (BACE1 [3]; purified human enzyme, fluorescence polarization, peptide substrate): 120 nM
- BACE1 potency increase in live cells (BACE1 [10]): 12 x
- IC50 (BACE1 [10]; sAPPβ ELISA, H4 neuroglioma cells with human wild-type APP): 10 nM
- IC50 (CatD [4]; purified human enzyme, fluorescence polarization, substrate-based): 13000 nM

— paper PMC5062570 (Nature Communications, 2016)
